Results taken from US4335247A, “Novel nitrosourea derivatives and process for their production” (Kowa Co., Ltd., priority 1980, dated 1982).
Where two headings read alike, the source gives them in different places.

Legend:
[1] = Acute toxicity (median lethal dose, intraperitoneal); conditions: mouse, in vivo, ip; intraperitoneal injection, ddy mice, Litchfield-Wilcoxon method
Method: The median lethal dose (LD50) of each of the test compounds was determined by the Litchfield-Wilcoxon method after the intraperitoneal injection of the compound into ddy mice.

[2] = system: P388 cancer cell; test: Anti-tumor test, P388-inoculated mice (survival effect); type: in vivo; conditions: Mus musculus, P388, ip, intraperitoneal, CDF1 mice; for response vs control in vivo at 12.5 mg/kg / responders at 12.5 mg/kg: 12.5 mg/Kg/day; for response vs control in vivo at 25 mg/kg / responders at 25 mg/kg: 25 mg/Kg/day; for response vs control in vivo at 50 mg/kg / responders at 50 mg/kg: 50 mg/Kg/day
Method: Each experimental group was composed of six CDF1 mice. The mice were inoculated intraperitoneally with 10^6 P388 cancer cell, and the test compounds suspended in a gum arabic were administered intraperitoneally to the animals 24 hours and 5 days, respectively, after the inoculation. The survival effect of each of the compounds was expressed by the percentage of the survival days of the treated animals in each group relative to those of the control animals.

[3] = 24 hours and 5 days after inoculation, read-out: Survival Effect T/C
[4] = of six mice, read-out: Cure (converted)
[5] = of six mice, read-out: Tumored Survivors (converted)
[6] = 100 mg/Kg/day, 24 hours and 5 days after inoculation, read-out: Survival Effect T/C

SMILES	LD50 [1] [mg/kg]	response vs control in vivo at 12.5 mg/kg [2, 3] [%]	response vs control in vivo at 25 mg/kg [2, 3] [%]	responders at 25 mg/kg [2, 4] [%]	response vs control in vivo at 50 mg/kg [2, 3] [%]	responders at 50 mg/kg [2, 4] [%]	responders at 50 mg/kg [2, 5] [%]	response vs control in vivo at 6.25 mg/kg ([2]; 6.25 mg/Kg/day, 24 hours and 5 days after inoculation, read-out: Survival Effect T/C) [%]	responders at 25 mg/kg [2, 5] [%]	responders at 12.5 mg/kg [2, 4] [%]	responders at 12.5 mg/kg [2, 5] [%]	response vs control in vivo at 100 mg/kg [2, 6] [%]	responders at 100 mg/kg ([2]; 100 mg/Kg/day, of six mice, read-out: Cure (converted)) [%]
C[C@@H](O)[C@H](NC(=O)N(CCCl)N=O)C(=O)Nc1nncs1 (relative stereo) [L]	65	153	93	16.7	81								
O=NN(CCCl)C(=O)Nc1nncs1 [A]	78	170	173		172								
CC(C)[C@H](NC(=O)N(CCCl)N=O)C(=O)O [B]	72		230		297	16.7	16.7						
CC(C)[C@H](NC(=O)N(CCCl)N=O)C(=O)Nc1nncs1 [D]	49	281	291	83.3				223					
CC(C)CC(NC(=O)N(CCCl)N=O)C(=O)Nc1nncs1 (stereo not drawn) [E]	82	220	303	33.3	303	83.3			16.7				
CC(C)C[C@H](NC(=O)N(CCCl)N=O)C(=O)Nc1nncs1 [F]	85	292	303	50					33.3	16.7	16.7		
CC[C@H](C)[C@H](NC(=O)N(CCCl)N=O)C(=O)Nc1nncs1 [G]	78	247	297	16.7	297	50	33.3		50	16.7			
CSCC[C@H](NC(=O)N(CCCl)N=O)C(=O)Nc1nncs1 [H]	67	235	294	50	294	83.3	16.7		33.3	16.7			
O=NN(CCCl)C(=O)N[C@@H](C(=O)Nc1nncs1)c1ccccc1 [I]	69	297	297	33.3	297	83.3			33.3	33.3	16.7		
O=NN(CCCl)C(=O)N[C@@H](Cc1ccccc1)C(=O)Nc1nncs1 [J]	74	297	297	83.3	297	66.7	16.7			33.3	16.7		
O=NN(CCCl)C(=O)NC1(C(=O)Nc2nncs2)CCCC1 [K]	53	175	176		176								
O=NN(CCCl)C(=O)N[C@@H](Cc1c[nH]c2ccccc12)C(=O)Nc1nncs1 [M]	73		294	83.3	294	50	33.3					107	16.7
CC(C)[C@@H](NC(=O)N(CCCl)N=O)C(=O)Nc1nncs1 [N]	68		217	16.7	99	33.3							
CC(C)C[C@@H](NC(=O)N(CCCl)N=O)C(=O)Nc1nncs1 [O]	61		190		217							188	
